Tests used:
[1] = target: Recombinant Human PSMA/FOLH1 Protein (Homo sapiens (Human), UniProt Q04609); experiment: Inhibition assay (Amplex Red glutamic acid/glutamate oxidase, NAAG substrate); type: biochemical; details: Target PSMA, average of N replicates; for IC50: PSMA 5 nM, NAAG 40 μM; for Ki: calculated based on Cheng-Prusoff equation
Description: Amplex™ Red Glutamic Acid/Glutamate Oxidase Assay Kit Catalog number: A12221 (Thermofisher); Recombinant Human PSMA/FOLH1 Protein, CF (rnd systems); N-Acetyl-Asp-Glu (NAAG) (Sigma Aldrich; 96 well half area plate; Enspire plate reader.
Prepare a working solution of 100 μM Amplex® Red reagent containing 0.25 U/mL HRP, 0.08 U/mL L-glutamate oxidase, 0.5 U/mL 1-glutamate-pyruvate transaminase, 200 μM L-alanine and keep protected from light. […] Final concentration is 5 nM. Transfer 10 μl/well of the inhibitor solution previously prepared in a separate 96 wells/plate.
Pipette 20 μl/well of the working solution prepared above. Incubate the reactions for 30 min at 37° C., protected from light. Because the assay is continuous (not terminated), fluorescence may be measured at multiple time points to follow the kinetics of the reactions. Measure the fluorescence in a fluorescence microplate reader using excitation in the range of 530-560 nm and emission detection at ˜590 nm. Ec50s were determined with GraphPad Prism. Ki is calculated based on Cheng-Prusoff equation.

[2] = target: PSMA+ cells (22rv1 human prostate carcinoma epithelial cell line) (Homo sapiens (Human), UniProt Q04609); experiment: Cellular competition assay on PSMA+ cells (flow cytometry, competition with BPT1288), 22rv1; type: cell-based
Description: On the day of experiment, cells were harvested with Trypsin and washed with assay buffer consisting of 1×PBS supplemented with 2% FBS and stained with viability dye (Biolegend Zombie NIR) diluted 1:1000 in PBS for 20 minutes. After washing and counting, cells were seeded at 50,000 cells/well in a 96 well V bottom polypropylene plate and kept on ice. Twelve 4-fold serial dilutions of analytes were prepared in cold assay buffer and added to cell suspension.
Single-cell AlexaFluor488 fluorescence emission was measured with a flow cytometer and plotted against analyte concentration in X-axis. Half maximal inhibition concentrations (IC50) were calculated based on a variable slope and four parameter analysis using GraphPad PRISM software

human FOLH1 = human FOLH1 (Homo sapiens (Human), UniProt Q04609); experiment: SPR analysis of binding kinetics to biotinylated FOLH1 (Biacore 8K); details: ligand PSMA; for Kd: kinetic 1:1 binding model; for Kon: association rate; for koff: dissociation rate
Description: The interaction of PSMA-binding variants with human FOLH1 was measured with Surface Plasmon Resonance (SPR) technology. Biotinylated FOLH1 was captured at a concentration of 30 μg/mL onto a Streptavidin chip.
Binding kinetics of the analytes were measured with a Biacore 8K instrument in two-fold serial dilutions starting at 500 nM down to 1.95 nM in single cycle kinetic measurements. After each cycle, needles were washed with 50% DMSO. To measure the association to the FOLH1 protein, the samples were injected with a flow rate of 30 μL/min for 90 s, followed by 1200 s buffer only to detect the dissociation. The used running buffer was 1×PBS with 0.05% Tween20 and 2% DMSO. The relative response units (RU, Y-axis) are plotted against time (s, X-axis) and analyzed in a kinetic 1:1 binding model.
In a different setup, biotinylated FOLH1 was captured at a concentration of 0.8 μg/mL and the running buffer was 1×PBS with 0.05% Tween20.

Chain of human FOLH1 (Q04609 whole entry): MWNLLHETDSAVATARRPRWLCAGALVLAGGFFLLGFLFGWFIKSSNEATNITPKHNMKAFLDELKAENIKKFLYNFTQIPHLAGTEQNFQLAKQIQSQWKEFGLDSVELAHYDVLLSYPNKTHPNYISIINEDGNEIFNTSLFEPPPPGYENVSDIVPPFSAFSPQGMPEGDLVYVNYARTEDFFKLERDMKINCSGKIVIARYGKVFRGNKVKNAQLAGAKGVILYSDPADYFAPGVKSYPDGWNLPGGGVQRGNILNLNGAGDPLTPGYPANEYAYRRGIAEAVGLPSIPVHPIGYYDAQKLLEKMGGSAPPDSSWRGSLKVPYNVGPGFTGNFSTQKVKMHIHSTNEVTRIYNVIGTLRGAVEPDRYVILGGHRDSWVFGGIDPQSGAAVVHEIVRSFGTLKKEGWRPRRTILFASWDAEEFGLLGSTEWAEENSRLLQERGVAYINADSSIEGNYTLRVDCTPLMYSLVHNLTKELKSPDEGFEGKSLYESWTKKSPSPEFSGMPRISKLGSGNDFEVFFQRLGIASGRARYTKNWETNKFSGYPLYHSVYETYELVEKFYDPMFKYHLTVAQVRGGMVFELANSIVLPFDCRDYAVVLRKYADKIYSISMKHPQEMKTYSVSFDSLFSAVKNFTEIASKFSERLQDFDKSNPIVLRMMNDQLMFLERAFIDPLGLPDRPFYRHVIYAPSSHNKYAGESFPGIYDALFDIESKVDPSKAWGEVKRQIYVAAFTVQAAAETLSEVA
Chain of Recombinant Human PSMA/FOLH1 Protein (Q04609 whole entry): as above
Chain of PSMA+ cells (22rv1 human prostate carcinoma epithelial cell line) (Q04609 whole entry): as above

Structure (SMILES)	IC50 [1]	Ki [1]	IC50 [2]	Kd (human FOLH1)	Kon (human FOLH1)	koff (human FOLH1)
CC(=O)NCCOCCOCCOCCC(=O)NC[C@H]1CC[C@H](C(=O)N[C@@H](Cc2ccc3ccccc3c2)C(=O)NCCCC[C@H](NC(=O)N[C@@H](CCC(=O)O)C(=O)O)C(=O)O)CC1 [Compound 8]	29.3 nM	0.21 nM	2.65 nM	0.654 nM	–	–
CC(=O)NCCOCCOCCOCCC(=O)N1C[C@H](NC(=O)COc2cc(C#N)cc(C#N)c2)C[C@H]1C(=O)NCC(=O)N[C@@H](Cc1ccc2ccccc2c1)C(=O)NCCCC[C@H](NC(=O)N[C@@H](CCC(=O)O)C(=O)O)C(=O)O [Compound 89]	93.5 nM	0.669 nM	–	2.58 nM	121000 1.ms	0.000311 s⁻¹
CC(=O)NCCOCCOCCOCCC(=O)N[C@@H]1C[C@@H](C(=O)NCC(=O)N[C@@H](Cc2ccc3ccccc3c2)C(=O)NCCCC[C@H](NC(=O)N[C@@H](CCC(=O)O)C(=O)O)C(=O)O)N(C(=O)COc2cc(C#N)cc(C#N)c2)C1 [Compound 90]	87.6 nM	0.626 nM	–	1.27 nM	183000 1.ms	0.000232 s⁻¹
CC(=O)NCCOCCOCCOCCC(=O)N[C@@H](Cc1cccc(C(=O)O)c1)C(=O)NCCC(=O)N[C@@H](Cc1ccc2ccccc2c1)C(=O)NCCCC[C@H](NC(=O)N[C@@H](CCC(=O)O)C(=O)O)C(=O)O [Compound 93]	9.6 nM	0.0686 nM	–	1.73 nM	149000 1.ms	0.000258 s⁻¹
CC(=O)NCCOCCOCCOCCC(=O)N[C@@H](Cc1ccc(C(=O)O)cc1)C(=O)NCCC(=O)N[C@@H](Cc1ccc2ccccc2c1)C(=O)NCCCC[C@H](NC(=O)N[C@@H](CCC(=O)O)C(=O)O)C(=O)O [Compound 95]	11.5 nM	0.0823 nM	–	1.95 nM	124000 1.ms	0.000242 s⁻¹
CC(=O)NCCOCCOCCOCCC(=O)N[C@@H](Cc1ccc(C(=O)O)cc1)C(=O)NCCCC(=O)N[C@@H](Cc1ccc2ccccc2c1)C(=O)NCCCC[C@H](NC(=O)N[C@@H](CCC(=O)O)C(=O)O)C(=O)O [Compound 97]	10.8 nM	0.077 nM	–	3.64 nM	90100 1.ms	0.000328 s⁻¹

Source: patent US20250213705A1, “PSMA TARGETING LIGANDS AND METHODS OF USE” (Bright Peak Therapeutics AG, priority 2023, published 2025)
